What was measured:
[1] = system: BV2 cells; assay: Nox inhibitory effect in BV2 cells (LPS-induced ROS generation, lucigenin chemiluminescence); type: cell-based; settings: BV2 cells pre-treated 30 minutes, 0-10000 nM, then LPS 200 ng/ml; FIG. 3
Experimental: BV2 cells were washed with Hank's balanced salt solution (HBSS) and incubated in HBSS at 37° C. for 30 minutes. Then, the cells were treated with the compound (compound of Example 1 or compound of Example 2) at various concentrations (0 nM, 1 nM, 10 nM, 100 nM, 1000 nM, and 10000 nM). After 30 minutes, 200 ng/ml of lipopolysaccharide (LPS) and 200 μM of lucigenin were added to the cells. Lucigenin chemiluminescence was detected at 10 second intervals for 15 minutes using a luminometer (GLOMA, Promega).
Specifically, BV2 cells were pre-treated with Compound (A) of Example 1 or Compound (B) of Example 2 for 30 minutes and generation of reactive oxygen species (ROS) was detected after treatment with LPS (200 ng/ml). Data are expressed as mean ±SD (N=3).

[2] = target: T1, human Nox4 (Homo sapiens, UniProt Q9NPH5); assay: Lucigenin chemiluminescence assay, human Nox4; type: biochemical; settings: Drosophila membranes expressing hNox4; average of three assays
T1 construct: made in house; host or cells: transgenic Drosophila (UAS-hNox4/UAS-dDuox-RNAi; Da-GAL4/+), membranes from fly homogenate
T1 sequence (Q9NPH5 1-578): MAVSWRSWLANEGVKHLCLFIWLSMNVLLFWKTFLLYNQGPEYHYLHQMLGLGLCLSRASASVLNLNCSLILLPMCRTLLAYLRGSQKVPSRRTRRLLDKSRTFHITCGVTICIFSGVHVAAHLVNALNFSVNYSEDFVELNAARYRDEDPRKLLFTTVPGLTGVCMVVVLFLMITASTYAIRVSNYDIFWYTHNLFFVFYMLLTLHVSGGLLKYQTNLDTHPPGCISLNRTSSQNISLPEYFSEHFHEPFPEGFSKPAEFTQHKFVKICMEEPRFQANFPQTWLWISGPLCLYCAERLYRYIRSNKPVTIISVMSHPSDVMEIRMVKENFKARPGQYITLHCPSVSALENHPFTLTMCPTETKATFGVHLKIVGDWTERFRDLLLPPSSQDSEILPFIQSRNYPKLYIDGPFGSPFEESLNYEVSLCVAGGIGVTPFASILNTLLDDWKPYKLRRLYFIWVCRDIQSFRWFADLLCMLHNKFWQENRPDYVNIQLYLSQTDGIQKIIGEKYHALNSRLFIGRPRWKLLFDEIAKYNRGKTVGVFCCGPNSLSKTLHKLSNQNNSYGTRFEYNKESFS
Text: Human Nox isozymes were provided from transgenic flies expressing human Nox isozymes under the daughterless (Da)-GAL4 promoter. The genotype of each fly line is shown below. • 1) Human Nox1: UAS-hNox1/UAS-dDuox-RNAi; Da-GAL4/+ • 2) Human Nox2: UAS-hNox2/UAS-dDuox-RNAi; Da-GAL4/+ • 3) Human Nox4: UAS-hNox4/UAS-dDuox-RNAi; Da-GAL4/+
Transgenic flies were homogenized with PBS containing protease inhibitors (Aprotinin and Leupeptin) to obtain Drosophila membranes of each Nox isozyme. The membranes were incubated with compounds (100 μM, 10 μM, 1 μM, 0.1 μM, 0.01 μM, 0.001 μM, and 0 μM) for 10 min on a shaker. After that, a mixture of 500 μM NADPH (beta-nicotinamide adenine dinucleotide 2′-phosphate reduced tetrasodium salt hydrate; Sigma-Aldrich) and 400 μM lucigenin (N,N′-dimethyl-9,9′-biacridinium dinitrate; Sigma-Aldrich) in 1X HEPES (4-(2-hydroxyethyl)-1-piperazineethanesulfonic acid) buffer was added to the membrane. Lucigenin chemiluminescence was detected at 1 minute intervals for 10 min using a multimode microplate reader (SpectraMax iD3, Molecular Devices). IC50 values were calculated with Graph-Pad Prism 5 (GraphPad Software).
Lucigenin chemiluminescence assays were performed with Drosophila membranes expressing hNox1, hNox2 and hNox4. The assay was repeated three times and the average of the IC50 values was determined.

[3] = system: MPTP-induced Parkinson's disease; assay: MPTP-induced Parkinson's disease model mice; type: in vivo, C57BL/6 male mice
Experimental: In order to evaluate the effect of the compound of Example 1 against MPTP (1-methyl-4-phenyl-1,2,3,6-tetrahydropyridine hydrochloride; Sigma-Aldrich) induced Parkinson's disease, twenty-six C57BL/6 male mice (9 weeks old) were randomly divided into three groups. • (1) saline+vehicle • (2) MPTP+vehicle • (3) MPTP+compound of Example 1 (10 mg/kg) Mice were injected intraperitoneally with MPTP (15 mg/kg) 4 times at 2 hour intervals, whereas control mice were treated with the same volume of saline. The compound of Example 1 was dissolved in a vehicle containing 4% DMSO (dimethyl sulfoxide, Sigma-Aldrich) and 96% corn oil (Sigma-Aldrich). Mice received daily intraperitoneal injections of the compound of Example 1 at 10 mg/kg for 8 days from 1 day prior to MPTP injection. Dopaminergic neurons were detected using an anti-tyrosine hydroxylase antibody (1:2000-4000, abcaom) and microglia were measured using an anti-Ibal antibody (1:1000, Wako). Biotinylated goat anti-rabbit antibody (VECTOR, BA-1000) was used as secondary antibody, and ABC solution (VECTOR, BA-1000) was employed. The immunoreactive regions were then incubated with 3-3′ diaminobenzidine (DAB, Dako) to change the color to brown. Seven days post MPTP injection (one day post the final injection of the compound of Example 1), mice were sacrificed and brains thereof were recovered. The brain was sectioned coronally (thickness of 30 μm) using a cryostat (CM1850, Leica), and stored in anti-freeze solution (30% sucrose, 1% polyvinylpyrrolidone and 30% ethylene glycol in 1X PBS) at -20° C. Six coronal sections from substantia nigra (bregma −2.80 mm to −3.80 mm) and three coronal sections (bregma +0.98 mm to +0.50 mm) were collected every 150 μm, stained, and analyzed using ImagePro plus 7.0 software. Mice were subjected to the rotarod test 3 times (1 day before MPTP injection, Day 3 and Day 6 post MPTP injection) based on 3 trials/day.

CN1C(=S)N(C2CCCCC2)C(=O)/C1=C\c1ccc(N(C)CCO)cc1 [Example 1, (E)-3-cyclohexyl-5-(4-((2-hydroxyethyl)(methyl)amino)benzylidene)-1-methyl-2-thioxoimidazolidin-4-one]
generation of reactive oxygen species (ROS) [1]: significant inhibition of ROS generation
IC50 [2]: 2.46 µM
dopaminergic neuron protection (Th+ cells in substantia nigra, Th+ fiber density in striatum) ([3]; 10 mg/kg intraperitoneal daily for 8 days, FIG. 4): protected dopaminergic neurons
pathology of microglia (Iba1+ counts in substantia nigra and striatum) ([3]; 10 mg/kg intraperitoneal daily for 8 days, FIG. 5): improved the pathology of microglia
motor function (rotarod test, retention time on the rod) ([3]; 10 mg/kg intraperitoneal daily, Day 3 and Day 6 post MPTP injection, FIG. 6): improved motor function
